Data reported in ChEMBL document CHEMBL1201862, “PubChem BioAssay data set” (2004).
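All cell lines were grown in 96-well plates and treated with compound for 48 hours. Abbreviation: GI50, concentration required for 50% inhibition of growth.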 The source made the active and inactive calls. Cut-off read from the data, not from the text of the source: active = GI50 up to about 1.1 µM and inactive = higher.

What was measured:
Assay in all cases: inhibition of tumour cell growth, NCI panel, 48 h
A498 = test system: A498
NCI-H226 = test system: NCI-H226
SF-539 = test system: SF-539
Malme-3M = test system: Malme-3M
MDA-MB-231 = test system: MDA-MB-231
SN12C = test system: SN12C
OVCAR-5 = test system: OVCAR-5
SK-MEL-5 = test system: SK-MEL-5
HCC 2998 = test system: HCC 2998
NCI-H23 = test system: NCI-H23
MDA-MB-435 = test system: MDA-MB-435
U-251 = test system: U-251
PC-3 = test system: PC-3
NCI-H522 = test system: NCI-H522
T47D = test system: T47D
NCI/ADR-RES = test system: NCI/ADR-RES
EKVX = test system: EKVX
HT-29 = test system: HT-29
HOP-62 = test system: HOP-62
HCT-116 = test system: HCT-116
RPMI-8226 = test system: RPMI-8226
SR = test system: SR
OVCAR-4 = test system: OVCAR-4
Hs-578T = test system: Hs-578T
OVCAR-8 = test system: OVCAR-8
SF-295 = test system: SF-295
CCRF-CEM = test system: CCRF-CEM
LOX IMVI = test system: LOX IMVI
TK-10 = test system: TK-10
MDA-N = test system: MDA-N
K562 = test system: K562
SK-MEL-2 = test system: SK-MEL-2
HL-60 = test system: HL-60
UACC-62 = test system: UACC-62
A549 = test system: A549
ACHN = test system: ACHN
RXF 393 = test system: RXF 393
M14 = test system: M14
OVCAR-3 = test system: OVCAR-3
HCT-15 = test system: HCT-15
786-0 = test system: 786-0
KM12 = test system: KM12
IGROV-1 = test system: IGROV-1
UACC-257 = test system: UACC-257
MCF7 = test system: MCF7
COLO 205 = test system: COLO 205
HOP-92 = test system: HOP-92
SK-OV-3 = test system: SK-OV-3

Question: What does the source list for `COC(=O)c1c2c(cc3c1CC1(Cc4cc5c(c(C(C)=O)c4C1)CCCC5)C3)CCCC2` (stereo not drawn)?
Answer: GI50 (A498): > 100 µM (inactive); GI50 (NCI-H226): > 100 µM (inactive); GI50 (SF-539): > 100 µM (inactive); GI50 (Malme-3M): > 100 µM (inactive); GI50 (MDA-MB-231): > 100 µM (inactive); GI50 (SN12C): > 100 µM (inactive); GI50 (OVCAR-5): > 100 µM (inactive); GI50 (SK-MEL-5): 34.1 µM (inactive); GI50 (HCC 2998): > 100 µM (inactive); GI50 (NCI-H23): > 100 µM (inactive); GI50 (MDA-MB-435): 92.5 µM (inactive); GI50 (U-251): > 100 µM (inactive); GI50 (PC-3): 24.6 µM (inactive); GI50 (NCI-H522): > 100 µM (inactive); GI50 (T47D): > 100 µM (inactive); GI50 (NCI/ADR-RES): > 100 µM (inactive); GI50 (EKVX): > 100 µM (inactive); GI50 (HT-29): 48.8 µM (inactive); GI50 (HOP-62): > 100 µM (inactive); GI50 (HCT-116): 60 µM (inactive); GI50 (RPMI-8226): 29.6 µM (inactive); GI50 (SR): 3.02 µM (inactive); GI50 (OVCAR-4): > 100 µM (inactive); GI50 (Hs-578T): > 100 µM (inactive); GI50 (OVCAR-8): > 100 µM (inactive); GI50 (SF-295): > 100 µM (inactive); GI50 (CCRF-CEM): 29.2 µM (inactive); GI50 (LOX IMVI): > 100 µM (inactive); GI50 (TK-10): > 100 µM (inactive); GI50 (MDA-N): 66.4 µM (inactive); GI50 (K562): 23.4 µM (inactive); GI50 (SK-MEL-2): 21.4 µM (inactive); GI50 (HL-60): 12.6 µM (inactive); GI50 (UACC-62): > 100 µM (inactive); GI50 (A549): > 100 µM (inactive); GI50 (ACHN): 44.1 µM (inactive); GI50 (RXF 393): > 100 µM (inactive); GI50 (M14): > 100 µM (inactive); GI50 (OVCAR-3): > 100 µM (inactive); GI50 (HCT-15): > 100 µM; GI50 (786-0): > 100 µM (inactive); GI50 (KM12): > 100 µM (inactive); GI50 (IGROV-1): > 100 µM (inactive); GI50 (UACC-257): 56 µM (inactive); GI50 (MCF7): 85.1 µM (inactive); GI50 (COLO 205): > 100 µM (inactive); GI50 (HOP-92): > 100 µM (inactive); GI50 (SK-OV-3): > 100 µM (inactive)
